Experimental findings from paper PMC11335189, “Revealing molecular determinants governing mambalgin-3 pharmacology at acid-sensing ion channel 1 variants” (Cellular and Molecular Life Sciences: CMLS, 2024) are described below.

Substitutions are numbered along the chain they refer to. Like-named read-outs stand apart in the source and are kept apart here. Positions of bridges follow the written chain, without caps; N, C: chain ends. No end group written: not given here. Bounds are passed on as bounds.

In test [1] the target is T1, rat acid-sensing ion channel 1a (rat) (UniProt P55926).
T1 sequence: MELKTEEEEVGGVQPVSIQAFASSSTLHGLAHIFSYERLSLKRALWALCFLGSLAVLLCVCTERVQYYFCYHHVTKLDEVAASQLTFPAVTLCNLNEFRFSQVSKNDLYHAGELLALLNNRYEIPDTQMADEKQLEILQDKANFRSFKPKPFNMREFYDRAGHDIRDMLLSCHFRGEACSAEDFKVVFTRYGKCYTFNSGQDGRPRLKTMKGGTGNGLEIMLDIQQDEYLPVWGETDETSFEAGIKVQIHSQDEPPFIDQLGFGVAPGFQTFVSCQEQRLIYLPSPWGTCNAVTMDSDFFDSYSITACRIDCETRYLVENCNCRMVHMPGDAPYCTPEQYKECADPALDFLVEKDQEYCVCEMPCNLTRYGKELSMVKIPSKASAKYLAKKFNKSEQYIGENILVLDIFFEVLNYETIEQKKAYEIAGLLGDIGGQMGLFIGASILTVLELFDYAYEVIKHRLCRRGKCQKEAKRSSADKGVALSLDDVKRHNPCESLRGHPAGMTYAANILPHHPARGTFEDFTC

The target in the next test is T2, hASIC1b (Homo sapiens, UniProt P78348).
T2 construct: expressed in transfected cells; host or cells: Xenopus laevis oocytes (cRNA injection)
T2 sequence (P78348 1-562 isoform P78348-3): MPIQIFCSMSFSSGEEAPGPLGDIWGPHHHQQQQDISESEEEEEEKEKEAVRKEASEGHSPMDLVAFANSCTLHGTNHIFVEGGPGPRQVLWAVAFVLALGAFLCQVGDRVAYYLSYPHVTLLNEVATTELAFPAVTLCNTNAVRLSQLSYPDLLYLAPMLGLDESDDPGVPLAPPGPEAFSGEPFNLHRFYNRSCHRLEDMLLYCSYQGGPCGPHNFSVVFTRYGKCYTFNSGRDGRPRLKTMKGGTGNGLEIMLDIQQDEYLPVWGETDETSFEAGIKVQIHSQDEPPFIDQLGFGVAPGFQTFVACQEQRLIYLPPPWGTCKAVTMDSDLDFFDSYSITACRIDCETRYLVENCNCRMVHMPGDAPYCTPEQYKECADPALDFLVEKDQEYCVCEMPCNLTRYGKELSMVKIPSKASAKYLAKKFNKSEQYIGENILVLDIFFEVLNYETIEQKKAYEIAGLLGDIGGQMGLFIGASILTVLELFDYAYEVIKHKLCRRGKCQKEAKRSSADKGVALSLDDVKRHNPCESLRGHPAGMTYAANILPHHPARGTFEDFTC
The test is described as follows: TEVC in Xenopus laevis oocytes expressing hASIC1b. The settings on record: 1 µM peptide, conditioning pH 7.45, mean, n ≥ 5, read-out: I/Icontrol. Format: cell-based. On the procedure: (§1) Two-electrode voltage-clamp (TEVC) experiments using Xenopus laevis oocytes were conducted as previously described. Briefly, oocytes were surgically removed from anaesthetised female frogs, then treated with collagenase (~ 1 mg/ml, Sigma type I) for 2 h under agitation at room temperature. cRNAs were synthesised using a mMessage mMachine T7 or SP6 transcription kit (Thermo Fisher Scientific Australia Pty Ltd, Scoresby, VIC, Australia) and injected into healthy stage V–VI oocytes at 0.2–20 ng per cell. Different amounts of RNA were used for different wild-type and mutant constructs, as well as to titrate expression levels to record over multiple days and maintaining consistent expression levels. Injected oocytes were incubated at 17 °C for 1–7 days in 50% Leibovitz’s L-15 medium (Gibco, Thermo Fisher Scientific Australia Pty Ltd, Scoresby, VIC, Australia), supplemented with 25 µg/mL gentamicin, 25 µg/mL streptomycin, and 2.5% fetal horse serum. Membrane currents were recorded 2–7 days after cRNA-injection under voltage-clamp at -60 mV (Axon Axoclamp 900 A, Molecular Devices, CA, USA) using two standard glass microelectrodes of 0.5–1 MΩ resistance when filled with 3 M KCl solution. Data were sampled at 2 kHz and filtered at 0.1 kHz using Clampex 10 software (Molecular Devices, CA, USA). A microperfusion system was used to allow fast extracellular solution exchange (bath volume = ~ 30 µL). All experiments were performed at room temperature (18–23 °C) in ND96 (96 mM NaCl, 2 mM KCl, 1.8 mM CaCl2, 2 mM MgCl2, 5 mM HEPES, pH 7.45). In solutions below pH 6.8, HEPES was replaced by MES. All solutions containing peptides contained 0.05% fatty acid free bovine serum albumin to decrease adsorptive losses of peptide to plasticware. For all channels tested, control current magnitudes between 500 and 9000 nA when tested using a conditioning pH of 7.45 and stimulating pH of 6 (except for the chimeras that were stimulated with pH 5) were used for data collection. Before recording any experiments, oocytes were stimulated multiple times with low pH to minimise and stabilise tachyphylaxis/desensitisation, which were then accounted for during analysis. Complete recovery of currents from Ma-3 induced modulation within 3 min of washout at all channels tested allowed for correction for tachyphylaxis/desensitisation during analyses.
(§2) Specific to this work, the standard protocol was for oocytes to be conditioned at pH 7.45 and channels stimulated every 60 s using a 5 s pH 5 or 6 application, unless stated otherwise. For all concentration-response data, peptides were applied for ~ 50 s between each low pH stimulus application. Activation curves were determined by conditioning oocytes at pH 8 (Fig. 2e − g; and Fig. 5a and b) or 7.45 (Fig. 6; and Supplementary Fig. 2d and c) for 55 s and applying low pH stimuli from 7.25 to 5.0 for 5 s. Steady-state desensitisation (SSD) was determined by applying conditioning solutions of pH values from 8 to 6 for 115 s prior to stimulation by a pH drop to 5 for 5 s. Ma-3 was only applied in the conditioning solution for activation and steady-state desensitisation curves in the presence of peptide. Control pH-dependence curves were determined in the absence of any Ma-3. When assessing the effect of Ma-3 on the rASIC1a: ASIC1b chimeras (C92 and C166; and for the comparative wild-type data), the conditioning pH was 7.45 and stimulating pH 5 (Fig. 3b). Specific details of the conditioning and stimulating pH are noted in each figure legend.
(§3) Data were analysed using pCLAMP-Clampfit software (Version 11, Molecular Devices, CA, USA) and GraphPad Prism 9.5 and 10.2.2 (GraphPad Software, San Diego, CA, USA). To obtain the Hill coefficient (nH) and half-maximal response (EC50, IC50, or pH50) the Hill equation was fitted to normalised concentration-response curves by using a non-linear fit to the data of a four-parameter logistic equation (“sigmoidal dose-response” in GraphPad Prism 9.5). […]

A further test deals with T3, rASIC1a (Rattus norvegicus, UniProt P55926).
T3 construct: expressed in transfected cells; host or cells: Xenopus laevis oocytes (cRNA injection)
T3 sequence (P55926 1-526): T1 sequence
The test is described as follows: TEVC in Xenopus laevis oocytes expressing rASIC1a. It is filed as cell-based. The settings on record: peptides applied at pH 7.45, stimulated at pH 6. On the procedure: as §1, §2, §3

Test [2] concerns the target T4, rat acid-sensing ion channel 1b (rat).
T4 sequence (P55926 whole entry, looked up): T1 sequence

Test [3] concerns the target T5, rASIC1a S83T/Q84E/R175C/E177G (rat) (UniProt P55926).
T5 sequence: T1 sequence with S83T, Q84E, R175C, E177G

For test [4], the target named is T4, rat acid-sensing ion channel 1b (rat). The source holds these as a separate data set.
The target of test [5] is T6, human acid-sensing ion channel 1a (human) (UniProt P78348).
T6 sequence: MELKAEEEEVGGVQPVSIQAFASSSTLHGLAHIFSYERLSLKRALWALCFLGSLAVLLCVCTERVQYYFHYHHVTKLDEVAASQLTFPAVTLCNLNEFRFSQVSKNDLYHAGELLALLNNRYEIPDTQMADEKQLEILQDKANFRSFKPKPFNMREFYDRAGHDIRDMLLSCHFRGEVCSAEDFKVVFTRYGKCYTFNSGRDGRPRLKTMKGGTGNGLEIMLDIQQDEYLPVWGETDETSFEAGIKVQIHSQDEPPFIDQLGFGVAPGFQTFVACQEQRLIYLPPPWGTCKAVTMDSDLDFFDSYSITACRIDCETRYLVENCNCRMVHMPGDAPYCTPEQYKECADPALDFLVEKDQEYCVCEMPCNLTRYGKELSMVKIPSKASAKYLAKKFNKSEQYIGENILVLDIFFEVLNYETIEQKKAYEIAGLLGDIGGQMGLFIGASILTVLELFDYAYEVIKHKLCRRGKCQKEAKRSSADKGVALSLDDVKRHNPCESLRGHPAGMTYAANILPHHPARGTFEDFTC

In test [1], Ma-3 H6A (peptide) gave a fold increase of the IC50 of current inhibition against wild-type Ma-3 (conditioning pH 7.45, stimulus pH 6) above 10 fold.

Turning to “H-SLKCYQHGKVVTCHRDMKFCYHNIGMPFRNLKLALQGCSSSCSETENNKCCSTDRCNK (disulfide 4-20, 13-38, 42-50, 51-56 (inferred)) [I33A]”, the remaining activity at 1 µM on hASIC1b (pH 5 evoked currents) worked out at 100%; on hASIC1b (pH 6 evoked currents), 133%. In addition, the “increase in IC50 (loss of potency) relative to wild-type Ma-3” value at rASIC1a is given as “greater than 10 fold”.

Turning to “H-SLKCYQHGKVVTCHRDMKFCYHNIGMPFRNLKLIAQGCSSSCSETENNKCCSTDRCNK (disulfide 4-20, 13-38, 42-50, 51-56 (inferred)) [L34A]”, the remaining activity at 1 µM at hASIC1b (pH 5 evoked currents) is 98%; at hASIC1b (pH 6 evoked currents) it was 116%. Besides, the “increase in IC50 (loss of potency) relative to wild-type Ma-3” value at rASIC1a was “greater than 10 fold”.

For the substance “H-SLKCYQHGKVVTCHRDMKFCYHNIGMPFRNLKAILQGCSSSCSETENNKCCSTDRCNK (disulfide 4-20, 13-38, 42-50, 51-56 (inferred)) [L32A]”, the figures for the remaining activity at 1 µM at hASIC1b (pH 5 evoked currents) and on hASIC1b (pH 6 evoked currents) were 96% and 100%, respectively. The “increase in IC50 (loss of potency) relative to wild-type Ma-3” value on rASIC1a is “greater than 10 fold”.

Turning to “H-SLKCYQHGKVVTCHRDMKFCYHNIGMPFANLKLILQGCSSSCSETENNKCCSTDRCNK (disulfide 4-20, 13-38, 42-50, 51-56 (inferred)) [R28A]”, the figures for the remaining activity at 1 µM on hASIC1b (pH 5 evoked currents) and on hASIC1b (pH 6 evoked currents) were 97% and 118%, respectively. Moreover, on rASIC1a, the “increase in IC50 (loss of potency) relative to wild-type Ma-3” value was “greater than 10 fold”.

“H-SLKCYQAGKVVTCHRDMKFCYHNIGMPFRNLKLILQGCSSSCSETENNKCCSTDRCNK (disulfide 4-20, 13-38, 42-50, 51-56 (inferred)) [H6A]”: the remaining activity at 1 µM at hASIC1b (pH 5 evoked currents) stood at 98%; on hASIC1b (pH 6 evoked currents), 103%. In addition, at rASIC1a, the “increase in IC50 (loss of potency) relative to wild-type Ma-3” value is “greater than 10 fold”.

For the substance “H-SLKCYQHGKVVTCHRDMKFCYHNIGMPARNLKLILQGCSSSCSETENNKCCSTDRCNK (disulfide 4-20, 13-38, 42-50, 51-56 (inferred)) [F27A]”, the remaining activity at 1 µM at hASIC1b (pH 5 evoked currents) came out at 96%; at hASIC1b (pH 6 evoked currents) it was 111%. Further, on rASIC1a, the “increase in IC50 (loss of potency) relative to wild-type Ma-3” value is “greater than 10 fold”.

As to Ma-3 K8A (peptide), the values for the I/I (control) of pH 6-evoked currents with 300 nM peptide (I/I (control)) in test [2] and in test [3] were 0.91 and 0.65, respectively. The fold loss of potency of current inhibition against wild-type Ma-3 (conditioning pH 7.45, stimulus pH 6) is above 30 fold in test [4], 4 fold in test [5] and 4 fold in test [1].
